# Reference: patent US20070173461A1, “Glycoside prodrug of 5-aminosalicylic acid” (Nippon Shinyaku Co., Ltd., priority 2004, published 2007)
# Legend:
# [1] = rat, in vivo; cited from earlier work
# [2] = Measurement of plasma concentration of 5-ASA (HPLC) after administration to rats; type: in vivo, rat; settings: for Plasma concentration of 5-ASA after oral administration (in words, FIG. 1): rats, p.o., 50 mg/kg as 5-ASA
# Experimental: To SD male rats at 7 weeks of age, 5-ASA was intravenously administered as a test drug, and the compound [1], the compound [2], the compound [3] or Pentasa ™ was orally administered at a dose of 50 mg/kg as5-ASA. The plasma concentration of 5-ASA was measured by high performance liquid chromatography (HPLC). As for Pentasa (registered trademark), granules obtained by pulverizing Pentasa (registered trademark) tablet were used.
# [3] = Amount of 5-ASA in cecal, proximal colonic, distal colonic and rectal contents after oral administration; type: in vivo, rat; settings: rats, p.o., 50 mg/kg as 5-ASA; compared with Pentasa and 5-ASA; FIGS. 2-5
# Experimental: To SD male rats at 7 weeks of age, the compound [1], Pentasa ™ and 5-ASA were orally administered at a dose of 50 mg/kg as 5-ASA, and the contents in the cecum, the proximal colon, the distal colon and the rectum were homogenated and centrifuged. Then, the amount of 5-ASA in the respective sites of the large intestine was measured by high performance liquid chromatography (HPLC). As for Pentasa ™, granules obtained by pulverizing Pentasa ™ tablet were used.
# TNBS-induced colitis = assay: Trinitrobenzenesulfonic acid (TNBS)-induced colitis in rats; type: in vivo, rat; settings: 3 days after TNBS, female SD rats
# Experimental: To a female SD rat fasted for 24 hours, an aqueous solution of TNBS/50% ethanol (30 mg/0.25 ml/rat) was administered in the colon at 8 cm from the anus using a probe for oral administration under pentobarbital anesthesia to induce colitis. At 3 days after the administration of TNBS, the colon was excised, and the wet weight of the colon of 8 cm long from the anus was weighed. The degree of colitis onset was scored in accordance with the method of Wallace et al. (Gastroenterology 96, 29-36 (1989)). As the test compounds, Pentasa ™ at doses of 30 mg/kg and 100 mg/kg and compound [1] at doses of 61.8 mg/kg and 205.9 mg/kg (corresponding to 30 mg/kg and 100 mg/kg in terms of 5-ASA) were orally administered twice a day (on the day of TNBS administration, once at 4 hours before TNBS administration). Pentasa ™ was administered as granules obtained by pulversing Pentasa ™ tablet.
# [4] = Concentration of 5-ASA in colonic tissue and rectal tissue after oral administration; type: in vivo, rat; settings: rats, p.o., 50 mg/kg as 5-ASA; FIGS. 6 and 7
# Experimental: Further, the compound [2] and Pentasa ™ were orally administered at a dose of 50 mg/kg as 5-ASA, and the colon and the rectum were homogenated and centrifuged. Then, the concentrations of 5-ASA in the colonic tissue and the rectal tissue were measured by high performance liquid chromatography (HPLC). As for Pentasa ™, granules obtained by pulverizing Pentasa ™ tablet were used.
smiles,measurement,setting,value
C[C@@H]1C[C@H]2[C@@H]3CCC4=CC(=O)C=C[C@]4(C)[C@@]3(F)[C@@H](O)C[C@]2(C)[C@@]1(O)C(=O)COC1O[C@H](CO)[C@@H](O)[C@H](O)[C@H]1O (stereo partly drawn) [glucose derivative of dexamethasone],Fraction delivered to the cecum,[1],60%
"Nc1ccc(O)c(C(=O)O)c1 [Compound 5-ASA, 5-Aminosalicylic acid]",AUC,"[2]; rat, iv, plasma 5-ASA, SD male rats, i.v., 1 mg/kg, read-out: Area under the curve of concentration (AUC)",1420 ng·h/mL
"Nc1ccc(O[C@@H]2O[C@H](CO)[C@H](O)[C@H](O)[C@H]2O)c(C(=O)O)c1 [Compound [1], 5-amino-2-(β-D-galactopyranosyloxy)benzoic acid]","Amount of 5-ASA in the respective sites of the large intestine (cecum, proximal colon, distal colon, rectum contents)",[3],highest value
same,Damage score,TNBS-induced colitis; 61.8 mg/kg (corresponding to 30 mg/kg as 5-ASA) p.o. twice a day,significantly reduced
same,Increase of the wet weight of the colon,TNBS-induced colitis; 205.9 mg/kg (corresponding to 100 mg/kg as 5-ASA) p.o. twice a day,inhibited the increase of the wet weight of the colon significantly
same,"Plasma concentration of 5-ASA after oral administration (in words, FIG. 1)",[2],remained low as compared with those of Pentasa
"Nc1ccc(O[C@H]2O[C@H](CO)[C@H](O)[C@H](O)[C@H]2O)c(C(=O)O)c1 [[2], 5-amino-2-(α-D-galactopyranosyloxy)benzoic acid]",Concentrations of 5-ASA in the colonic tissue and the rectal tissue,[4],higher as compared with Pentasa
same,"Plasma concentration of 5-ASA after oral administration (in words, FIG. 1)",[2],remained low as compared with those of Pentasa
"Nc1ccc(O[C@@H]2O[C@H](CO)[C@@H](O)[C@H](O)[C@H]2O)c(C(=O)O)c1 [[3], 5-amino-2-(β-D-glucopyranosyloxy)benzoic acid]","Plasma concentration of 5-ASA after oral administration (in words, FIG. 1)",[2],remained low as compared with those of Pentasa
